Reference: BigSolDB 2.1

CC1=NN(c2ccccc2)C(=O)C1
solubility (mole fraction)
Conditions | 273.15 K | 278.15 K | 283.15 K | 288.15 K | 293.15 K | 298.15 K | 303.15 K | 308.15 K | 313.15 K
in acetonitrile | 0.00554 | 0.00717 | 0.0092 | 0.0116 | 0.0144 | 0.018 | 0.0218 | 0.0265 | 0.0314
in ethanol | 0.0172 | 0.0197 | 0.0226 | 0.0253 | 0.0285 | 0.0321 | 0.0358 | 0.0397 | 0.0445
in ethyl acetate | 0.0152 | 0.0173 | 0.0196 | 0.0223 | 0.0253 | 0.0284 | 0.0323 | 0.0368 | 0.0419
in methanol | 0.0108 | 0.013 | 0.0153 | 0.0179 | 0.0208 | 0.0238 | 0.0274 | 0.0312 | 0.0354
in n-propanol | 0.0199 | 0.0222 | 0.0249 | 0.028 | 0.0317 | 0.0353 | 0.0393 | 0.0433 | 0.0472
